This is an account of results in patent US20080311045A1, “Polymersomes for Use in Acoustically Mediated Intracellular Drug Delivery in vivo” (Biovaluation & Analysis, Inc., priority 2007, published 2008).

The nature of series [1]: Micropipette aspiration of polymersome membranes (elastic moduli, rupture, toughness). The format is physicochemical. Conditions: micropipette aspiration at 23° C. Here is the method:
A tool that has been used to measure many of the material properties of bilayer vesicles is, for example, “micropipette aspiration.” In micropipette aspiration, the rheology and material properties of micron-sized objects are measured using glass pipettes. Small, micron diameter pipettes are used to pick up, deform, and manipulate micron-sized objects, such as giant lipid vesicles. The aspiration pressure is controlled by manometers, in which the hydrostatic pressure in a reservoir connected to the micropipette is varied in relation to a fixed reference.
A deformable object is aspirated using a pressure driving force—or suction pressure—ΔP, and the object is drawn within the pipette to a projection length LP. […] The bending modulus is measured by exerting small tensions on the membrane, to smooth out thermally driven surface undulations. […] Procedures for this important technique and its many modification are readily available to those skilled in the art. […]
Analogous to a lipid bilayer, at low but increasing aspiration pressures, the thermally undulating polymersome membrane is progressively smoothed, increasing the projected area logarithmically with tension, τ. From the slope of this increase (i.e., in tension units of mN/m) versus the fractional change, α, in vesicle area, the bending modulus, Kb, is calculated (see, e.g., Evans et al., 1990) with the following equation: […]

Series [2] is described as follows: Laser-photobleaching lipid probe diffusivity in membranes. The format is physicochemical.

Regarding `CCCCCCCC/C=C\CCCCCCCC(=O)O[C@H](COC(=O)CCCCCCCCCCCCCCCCC)COP(=O)([O-])OCC[N+](C)(C)C` [SOPC, 1-stearoyl-2-oleoyl phosphatidylcholine], the “area expansion modulus, Ka” value in series [1] is given as about 180 mN/m. In series [2], the lipid probe diffusivity result is reported as “approximately 3×10^−8 cm^2/s”.
